Results on 21 compounds are retold here after patent publication EP4722213A1, “NITROGEN-CONTAINING FUNCTIONAL GROUP-SUBSTITUTED PYRIDAZINOPYRIDONE DERIVATIVE AND USE THEREOF” (Sichuan Huiyu Pharmaceutical Co., Ltd., priority 2023, dated 2024).

SMILES strings stand for the structures. Counter-ions that a name gives are not always drawn.

This assay addresses T1, SOS1 (Homo sapiens, UniProt Q07889).
T1 sequence (Q07889 1-1333): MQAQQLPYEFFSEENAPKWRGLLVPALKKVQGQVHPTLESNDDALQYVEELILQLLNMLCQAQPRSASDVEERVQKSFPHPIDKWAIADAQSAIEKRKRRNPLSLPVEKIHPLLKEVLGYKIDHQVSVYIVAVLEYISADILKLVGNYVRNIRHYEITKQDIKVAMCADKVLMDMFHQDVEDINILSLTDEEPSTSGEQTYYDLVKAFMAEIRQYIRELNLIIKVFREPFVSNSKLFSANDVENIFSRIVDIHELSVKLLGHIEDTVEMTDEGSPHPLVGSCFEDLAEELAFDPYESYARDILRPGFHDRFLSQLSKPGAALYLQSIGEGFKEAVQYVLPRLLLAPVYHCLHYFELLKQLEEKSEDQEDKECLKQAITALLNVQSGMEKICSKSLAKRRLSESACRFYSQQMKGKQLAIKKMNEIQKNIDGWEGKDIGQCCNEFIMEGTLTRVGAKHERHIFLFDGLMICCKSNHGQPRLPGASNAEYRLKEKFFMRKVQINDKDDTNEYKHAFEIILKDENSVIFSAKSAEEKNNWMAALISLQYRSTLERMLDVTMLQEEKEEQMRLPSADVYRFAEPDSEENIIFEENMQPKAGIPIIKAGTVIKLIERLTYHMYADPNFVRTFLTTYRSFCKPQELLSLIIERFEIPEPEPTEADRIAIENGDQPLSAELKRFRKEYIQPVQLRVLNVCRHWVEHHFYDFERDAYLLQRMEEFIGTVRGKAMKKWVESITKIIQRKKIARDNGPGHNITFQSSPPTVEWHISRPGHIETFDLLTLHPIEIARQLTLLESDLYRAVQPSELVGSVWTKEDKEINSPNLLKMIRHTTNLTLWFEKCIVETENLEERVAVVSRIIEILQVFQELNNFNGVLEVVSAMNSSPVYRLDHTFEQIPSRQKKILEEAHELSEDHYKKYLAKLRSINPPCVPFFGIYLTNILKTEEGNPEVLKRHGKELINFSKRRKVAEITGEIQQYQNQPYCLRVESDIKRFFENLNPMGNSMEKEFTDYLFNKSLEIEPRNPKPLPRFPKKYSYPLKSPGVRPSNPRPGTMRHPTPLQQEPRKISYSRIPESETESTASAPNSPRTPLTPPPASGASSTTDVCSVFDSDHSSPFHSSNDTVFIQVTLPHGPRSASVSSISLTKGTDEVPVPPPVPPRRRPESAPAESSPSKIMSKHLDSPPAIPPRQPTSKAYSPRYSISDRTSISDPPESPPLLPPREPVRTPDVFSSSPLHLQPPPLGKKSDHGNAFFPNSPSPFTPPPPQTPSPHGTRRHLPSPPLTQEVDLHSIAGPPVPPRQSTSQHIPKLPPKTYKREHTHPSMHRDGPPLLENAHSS
Briefly: biochemical.
Compound `C[C@@H](Nc1nnc(N2CCN(C(C)(C)C)CC2)c2cc(=O)n(C3(C)CC3)cc12)c1cccc(C(F)(F)F)c1F` [Example 172, (R)-4-((1-(2-fluoro-3-(trifluoromethyl)phenyl)ethyl)amino)-1-(4-tert-butylpiperazin-1-yl)-6-(1-methylcyclopropyl) pyrido[3,4-d]pyridazin-7(6H)-one] came in with an IC50 of 4.7 nM. This lies in the single-digit nanomolar range.

As for `C[C@@H](Nc1nnc(N2CCN(C3CCC3)CC2)c2cc(=O)n(C3(C)CC3)cc12)c1cccc(C(F)(F)F)c1F` [Example 173, (R)-4-((1-(2-fluoro-3-(trifluoromethyl)phenyl)ethyl)amino)-1-(4-cyclobutylpiperazin-1-yl)-6-(1-methylcyclopropyl) pyrido[3,4-d]pyridazin-7(6H)-one], the IC50 was 5.3 nM.

As to `C[C@@H](Nc1nnc(N2CCN(C)C(=O)C2)c2cc(=O)n(C3(C)CC3)cc12)c1cccc(C(F)(F)F)c1F` [Example 174, (R)-4-((1-(2-fluoro-3-(trifluoromethyl)phenyl)ethyl)amino)-1-(4-methyl-3-oxopiperazin-1-yl)-6-(1-methylcyclopropyl) pyrido[3,4-d]pyridazin-7(6H)-one], half-maximal inhibition (IC50) was put at 20.2 nM.

`C[C@@H](Nc1nnc(N2CC3CC2CO3)c2cc(=O)n(C3(C)CC3)cc12)c1cccc(C(F)(F)F)c1F` (stereo partly drawn) [Example 175, 1-(2-oxa-5-azabicyclo[2.2.1]heptan-5-yl)-4-(((R)-1-(2-fluoro-3-(trifluoromethyl)phenyl)ethyl)amino)-6-(1-methylcyclopropyl) pyrido[3,4-d]pyridazin-7(6H)-one] came in with an IC50 of 13 nM.

For the compound `C[C@@H](Nc1nnc(N2CC(CO)C2)c2cc(=O)n(C3(C)CC3)cc12)c1cccc(C(F)(F)F)c1` [Example 177, (R)-1-(3-(hydroxymethyl)azetidin-1-yl)-6-(1-methylcyclopropyl)-4-((1-(3-(trifluoromethyl)phenyl)ethyl)amino)pyr ido[3,4-d]pyridazin-7(6H)-one formate], inhibition was half-maximal at 6.2 nM (IC50).

Take `C[C@@H](Nc1nnc(N2CC[C@@H](CO)C2)c2cc(=O)n(C3(C)CC3)cc12)c1cccc(C(F)(F)F)c1` [Example 178, 1-((R)-3-(hydroxymethyl)pyrrolidin-1-yl)-6-(1-methylcyclopropyl)-4-(((R)-1-(3-(trifluoromethyl)phenyl)ethyl)amino)pyr ido[3,4-d]pyridazin-7(6H)-one formate]: the IC50 came to 6.3 nM.

Regarding `C[C@@H](Nc1nnc(N2CC[C@H](CO)C2)c2cc(=O)n(C3(C)CC3)cc12)c1cccc(C(F)(F)F)c1` [Example 179, 1-((S)-3-(hydroxymethyl)pyrrolidin-1-yl)-6-(1-methylcyclopropyl)-4-(((R)-1-(3-(trifluoromethyl)phenyl)ethyl)amino)pyr ido[3,4-d]pyridazin-7(6H)-one formate], the IC50 came to 6.4 nM.

For the compound `C[C@@H](Nc1nnc(N2CCN(C)[C@@H](C)C2)c2cc(=O)n(C3(C)CC3)cc12)c1cccc(C(F)(F)F)c1` [Example 180, 1-((S)-3,4-dimethylpiperazin-1-yl)-6-(1-methylcyclopropyl)-4-(((R)-1-(3-(trifluoromethyl)phenyl)ethyl)amino)pyr ido[3,4-d]pyridazin-7(6H)-one formate], the IC50 was 7.2 nM. The IC50 values of the last two compounds are within 1.5-fold of each other.

For `C[C@@H](Nc1nnc(N2CCN(C3CC3)CC2)c2cc(=O)n(C3(C)CC3)cc12)c1cccc(C(F)(F)F)c1` [Example 181, (R)-1-(4-cyclopropylpiperazin-1-yl)-6-(1-methylcyclopropyl)-4-((1-(3-(trifluoromethyl)phenyl)ethyl)amino)pyr ido[3,4-d]pyridazin-7(6H)-one formate], the IC50 was determined as 7.8 nM.

In turn, `C[C@@H](Nc1nnc(N2CC3(CCOCC3)C2)c2cc(=O)n(C3(C)CC3)cc12)c1cccc(C(F)F)c1F` [Example 182, (R)-4-((1-(3-(difluoromethyl)-2-fluorophenyl)ethyl)amino)-6-(1-methylcyclopropyl)-1-(7-oxa-2-azaspiro[3.5]nonan-2-yl)pyrido[3,4-d]pyridazin-7(6H)-one] registered an IC50 of 5 nM.

The compound `C[C@@H](Nc1nnc(N2CCC3(CCN(C)C3)C2)c2cc(=O)n(C3(C)CC3)cc12)c1cccc(C(F)F)c1F` (stereo partly drawn) [Example 183, 4-(((R)-1-(3-(difluoromethyl)-2-fluorophenyl)ethyl)amino)-1-(7-methyl-2,7-diazaspiro[4.4]nonan-2-yl)-6-(1-methylcyclopropyl) pyrido[3,4-d]pyridazin-7(6H)-one] came in with an IC50 of 4.9 nM.

As for `C[C@@H](Nc1nnc(N2CCC3(CCC3)CC2)c2cc(=O)n(C3(C)CC3)cc12)c1cccc(C(F)F)c1F` [Example 184, (R)-4-((1-(3-(difluoromethyl)-2-fluorophenyl)ethyl)amino)-6-(1-methylcyclopropyl)-1-(7-azaspiro[3.5]nonan-7-yl)pyrido[3,4-d]pyridazin-7(6H)-one], the midpoint of inhibition, the IC50, lay at 40.2 nM.

In turn, `C[C@@H](Nc1nnc(N2CCC3(CCCC3)CC2)c2cc(=O)n(C3(C)CC3)cc12)c1cccc(C(F)F)c1F` [Example 185, (R)-4-((1-(3-(difluoromethyl)-2-fluorophenyl)ethyl)amino)-6-(1-methylcyclopropyl)-1-(8-azaspiro[4.5]decan-8-yl)pyrido[3,4-d]pyridazin-7(6H)-one] displayed an IC50 of 84.3 nM.

The compound `C[C@@H](Nc1nnc(N2CCC3(CC2)CC3(F)F)c2cc(=O)n(C3(C)CC3)cc12)c1cccc(C(F)F)c1F` [Example 186, (R)-1-(1,1-difluoro-6-azaspiro[2.5]octan-6-yl)-4-((1-(3-(difluoromethyl)-2-fluorophenyl)ethyl)amino)-6-(1-methylcyclopropyl) pyrido[3,4-d]pyridazin-7(6H)-one] yielded an IC50 of 31.1 nM.

For `C[C@@H](Nc1nnc(N2CCC3(CC3)C2)c2cc(=O)n(C3(C)CC3)cc12)c1cccc(C(F)F)c1F` [Example 187, (R)-4-((1-(3-(difluoromethyl)-2-fluorophenyl)ethyl)amino)-6-(1-methylcyclopropyl)-1-(5-azaspiro[2.4]heptan-5-yl)pyrido[3,4-d]pyridazin-7(6H)-one], the IC50 came out at 4.8 nM. Against the preceding compound, the IC50 is about 6.5-fold lower.

`C[C@@H](Nc1nnc(N2CC3CCCC3C2)c2cc(=O)n(C3(C)CC3)cc12)c1cccc(C(F)F)c1F` (stereo partly drawn) [Example 188, 4-(((R)-1-(3-(difluoromethyl)-2-fluorophenyl)ethyl)amino)-1-(hexahydrocyclopenta[c]pyrrol-2(1H)-yl)-6-(1-methylcyclopropyl) pyrido[3,4-d]pyridazin-7(6H)-one] had a half-maximal inhibitory concentration (IC50) of 3.1 nM.

Consider `C[C@@H](Nc1nnc(N2CC3C(C2)C3(C)C)c2cc(=O)n(C3(C)CC3)cc12)c1cccc(C(F)F)c1F` (stereo partly drawn) [Example 189, 4-(((R)-1-(3-(difluoromethyl)-2-fluorophenyl)ethyl)amino)-1-(6,6-dimethyl-3-azabicyclo[3.1.0]hexan-3-yl)-6-(1-methylcyclopropyl) pyrido[3,4-d]pyridazin-7(6H)-one], for which the IC50 was 4.3 nM.

For the compound `C[C@@H](Nc1nnc(N2CC3(COC3)C2)c2cc(=O)n(C3(C)CC3)cc12)c1cccc(C(F)F)c1F` [Example 190, (R)-4-((1-(3-(difluoromethyl)-2-fluorophenyl)ethyl)amino)-6-(1-methylcyclopropyl)-1-(2-oxa-6-azaspiro[3.3]heptan-6-yl)pyrido[3,4-d]pyridazin-7(6H)-one], half-maximal inhibition (IC50) required 4.2 nM. This IC50 and that of the compound before are within 1.5-fold of each other.

Regarding `C[C@@H](Nc1nnc(N2CC3CCC(C2)N3C)c2cc(=O)n(C3(C)CC3)cc12)c1cccc(C(F)F)c1F` [Example 193], the IC50 turned out to be 4.3 nM.

Take `C[C@@H](Nc1nnc(N2CC3(CC(O)C3)C2)c2cc(=O)n(C3(C)CC3)cc12)c1cccc(C(F)F)c1F` [Example 196, (R)-4-((1-(3-(difluoromethyl)-2-fluorophenyl)ethyl)amino)-1-(6-hydroxy-2-azaspiro[3.3]heptan-2-yl)-6-(1-methylcyclopropyl) pyrido[3,4-d]pyridazin-7(6H)-one]: the IC50 was 3.7 nM.

The compound `C[C@@H](Nc1nnc(N2CCC3(C2)CS(=O)(=O)C3)c2cc(=O)n(C3(C)CC3)cc12)c1cccc(C(F)F)c1F` [Example 197, (R)-4-((1-(3-(difluoromethyl)-2-fluorophenyl)ethyl)amino)-1-(2,2-dioxido-2-thia-6-azaspiro[3.4]octan-6-yl)-6-(1-methylcyclopropyl) pyrido[3,4-d]pyridazin-7(6H)-one] yielded an IC50 of 5 nM.
